Some results are limits rather than exact numbers.

Sequence of Ba/F3 V617F cells (O60674 whole entry V617F): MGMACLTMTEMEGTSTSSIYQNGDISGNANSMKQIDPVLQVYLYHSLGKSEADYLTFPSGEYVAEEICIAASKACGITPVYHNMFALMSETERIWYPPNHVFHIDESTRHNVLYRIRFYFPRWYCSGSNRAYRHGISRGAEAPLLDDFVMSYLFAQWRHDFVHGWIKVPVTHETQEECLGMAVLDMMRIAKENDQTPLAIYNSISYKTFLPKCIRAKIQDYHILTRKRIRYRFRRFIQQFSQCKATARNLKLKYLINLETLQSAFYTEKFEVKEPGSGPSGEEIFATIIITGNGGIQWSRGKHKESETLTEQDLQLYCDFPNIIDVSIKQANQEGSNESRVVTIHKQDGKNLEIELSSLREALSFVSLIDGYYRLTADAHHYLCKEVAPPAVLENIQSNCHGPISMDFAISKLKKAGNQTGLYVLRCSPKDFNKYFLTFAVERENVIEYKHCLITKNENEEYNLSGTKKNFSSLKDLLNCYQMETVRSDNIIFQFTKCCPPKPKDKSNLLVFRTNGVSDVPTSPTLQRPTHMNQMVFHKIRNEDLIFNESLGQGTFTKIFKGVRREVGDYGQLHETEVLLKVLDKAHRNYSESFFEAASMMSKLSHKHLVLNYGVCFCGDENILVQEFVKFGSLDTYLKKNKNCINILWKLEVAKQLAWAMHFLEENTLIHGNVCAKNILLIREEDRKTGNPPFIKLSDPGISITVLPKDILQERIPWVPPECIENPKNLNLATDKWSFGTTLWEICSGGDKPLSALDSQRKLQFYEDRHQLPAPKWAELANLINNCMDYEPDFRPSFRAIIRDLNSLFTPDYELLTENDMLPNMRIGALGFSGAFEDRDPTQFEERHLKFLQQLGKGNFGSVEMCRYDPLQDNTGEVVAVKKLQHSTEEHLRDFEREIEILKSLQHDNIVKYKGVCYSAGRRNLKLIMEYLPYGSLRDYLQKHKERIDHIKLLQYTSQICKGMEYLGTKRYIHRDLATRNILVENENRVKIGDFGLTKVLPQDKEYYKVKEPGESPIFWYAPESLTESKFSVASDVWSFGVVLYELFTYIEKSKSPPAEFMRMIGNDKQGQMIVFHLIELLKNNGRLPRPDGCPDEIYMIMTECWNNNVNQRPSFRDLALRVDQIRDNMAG

One assay has as its target Ba/F3 V617F cells (Homo sapiens, UniProt O60674, V617F, cells depend on it). The experiment in a line: Proliferation assay (Cell Titer-Glo, 72 h) utilizing Ba/F3 V617F cells. The class given is cell-based, mouse. As to conditions: Ba/F3 V617F cells, proliferation, level of activity given as class symbol, read-out: IC50 (the source's name). Put shortly:
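Readout is CellTiter-Glo luminescence after 72 h at 37 °C, giving IC50. Cells: Ba/F3 V617F, 1×10^5 cells/mL in RPMI with 10% FBS, treated in duplicate with 3-fold dilution series made from 5 mM DMSO stock, 1:250 in 5% FBS medium, added at 2×.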
For `Cc1cc(Nc2nccc(-c3ccc(N4CCOCC4)nc3)n2)ccc1N1C[C@@H]2C[C@H]1CO2` [compound 194, 4-(6-(morpholin-4-yl)pyridin-3-yl)-N-(3-methyl-4-((1S,4S)-5-oxa-2-azabicyclo[2.2.1]heptan-2-yl)phenyl)pyrimidin-2-amine], the GI50 is < 1000 nM. Turning to `Cc1cc(Nc2nccc(-c3ccc4c(ccn4-c4ccncc4)c3)n2)ccc1N1C[C@@H]2C[C@H]1CN2CC(C)C` [compound 235, 4-(1-(pyridin-4-yl)-1H-indol-5-yl)-N-(3-methyl-4-((1S,4S)-5-isobutyl-2,5-diazabicyclo[2.2.1]heptan-2-yl)phenyl)pyrimidin-2-amine], the GI50 was < 1000 nM. Same read-out and setting: with `Cc1cc(Nc2nccc(-c3ccc4c(c3)OC(C)(C)C(=O)N4)n2)ccc1N1CCN2C(C1)[C@H]1CC[C@@H]2C1` (stereo partly drawn) [compound 244, 4-(2,2-dimethyl-3-oxo-3,4-dihydro-2H-benzo[b][1,4]oxazin-7-yl)-N-(3-methyl-4-((6R,9S)-6,9-methanooctahydro-1H-pyrido[1,2-a]pyrazin-2-yl)phenyl)pyrimidin-2-amine] the figure was < 1000 nM; with `Cc1cc(Nc2nccc(-c3ccc(N4C[C@@H]5C[C@H]4CO5)nc3)n2)ccc1N1C[C@@H]2C[C@H]1CN2C` [compound 215, 4-(6-((1S,4S)-2-oxa-5-azabicyclo[2.2.1]heptan-5-yl)pyridin-3-yl)-N-(3-methyl-4-((1S,4S)-5-methyl-2,5-diazabicyclo[2.2.1]heptan-2-yl)phenyl)pyrimidin-2-amine], < 1000 nM.

As to `Cc1cc(Nc2nccc(-c3ccc(OC4CCOCC4)nc3)n2)ccc1N1C[C@@H]2C[C@H]1CN2C1CCCC1` [compound 262, 4-(6-(tetrahydropyran-4-yloxy)pyridin-3-yl)-N-(3-methyl-4-((1S,4S)-5-cyclopentyl-2,5-diazabicyclo[2.2.1]heptan-2-yl)phenyl)pyrimidin-2-amine], the GI50 is < 1000 nM. Take `Cc1cc(Nc2nccc(-c3ccc(NCCC(C)C)nc3)n2)ccc1N1C[C@@H]2C[C@H]1CN2C` [compound 217, 4-(6-(3-methylbutyl)aminopyridin-3-yl)-N-(3-methyl-4-((1S,4S)-5-methyl-2,5-diazabicyclo[2.2.1]heptan-2-yl)phenyl)pyrimidin-2-amine]: the GI50 is < 1000 nM. Regarding `Cc1cc(Nc2nccc(-c3ccc(N4CCSCC4)nc3)n2)ccc1N1C[C@@H]2C[C@H]1CN2C` [compound 230, 4-(6-(thiamorpholin-4-yl)pyridin-3-yl)-N-(3-methyl-4-((1S,4S)-5-methyl-2,5-diazabicyclo[2.2.1]heptan-2-yl)phenyl)pyrimidin-2-amine], the GI50 is < 1000 nM.

The assay is the same for the next values; noted with them: Ba/F3 V617F cells, proliferation, level of activity to inhibit JAK2, read-out: IC50 (the source's name).
Consider `Cc1cc(Nc2nccc(-c3cnc4c(c3)OC(C)(C)C(=O)N4)n2)ccc1N1C[C@@H]2C[C@H]1CN2C` [compound 130, 4-(2,2-dimethyl-3-oxo-3,4-dihydro-2H-pyrido[3,2-b][1,4]oxazin-7-yl)-N-(3-methyl-4-((1S,4S)-5-methyl-2,5-diazabicyclo[2.2.1]heptan-2-yl)phenyl)pyrimidin-2-amine], for which the GI50 was < 1000 nM. Still for that read-out and setting: with `Cc1cc(Nc2nccc(-c3ccc(NC(=O)CN(C)C)nc3)n2)ccc1N1C[C@@H]2C[C@H]1CN2C` [compound 152, 4-(6-(2-(dimethylamino)acetamido)-pyridin-3-yl)-N-(3-methyl-4-((1S,4S)-5-methyl-2,5-diazabicyclo[2.2.1]heptan-2-yl)phenyl)pyrimidin-2-amine] the figure was < 1000 nM; with `Cc1cc(Nc2nccc(-c3cnc4[nH]ccc4c3)n2)ccc1N1C[C@@H]2C[C@H]1CN2CC1CC1` [compound 35, 4-(1H-pyrrolo[2,3-b]pyridin-5-yl)-N-(3-methyl-4-((1S,4S)-5-(cyclopropyl)methyl-2,5-diazabicyclo[2.2.1]heptan-2-yl)phenyl)pyrimidin-2-amine], < 1000 nM. On the same count and under the same terms, with `CCN1C[C@@H]2C[C@H]1CN2c1ccc(Nc2nccc(-c3cnc4c(c3)OC3(CCC3)C(=O)N4)n2)cc1C` [compound 32, 4-(3′-oxo-3′,4′-dihydrospiro[cyclobutane-1,2′-pyrido[3,2-b][1,4]oxazine]-7′-yl)-N-(3-methyl-4-((1S,4S)-5-ethyl-2,5-diazabicyclo[2.2.1]heptan-2-yl)phenyl)pyrimidin-2-amine] the figure was < 1000 nM. Same read-out and setting: with `Cc1cc(Nc2ncc(C(F)(F)F)c(-c3ccc(N(C)C)nc3)n2)ccc1N1C[C@@H]2C[C@H]1CN2C` [compound 3, 4-(6-(N,N-dimethylamino)pyridin-3-yl)-5-trifluoromethyl-N-(3-methyl-4-((1S,4S)-5-methyl-2,5-diazabicyclo[2.2.1]heptan-2-yl)phenyl)pyrimidin-2-amine] the figure was 1000 to 10000 nM. With `Cc1cc(Nc2nccc(-c3ccc4c(c3)CC(=O)N4)n2)ccc1N1CCN2CCC1C2` (centres unmarked) [compound 121, 4-(2-oxoindolin-5-yl)-N-(3-methyl-4-(1,4-diazabicyclo[3.2.1]octan-4-yl)phenyl)pyrimidin-2-amine], the GI50 was < 1000 nM. For `CC(=O)N1CCN(c2ccc(-c3ccnc(Nc4ccc(N5C[C@@H]6C[C@H]5CN6C)c(F)c4)n3)cn2)CC1` [compound 16, 4-(6-(4-acetylpiperazin-1-yl)pyridin-3-yl)-N-(3-fluoro-4-((1S,4S)-5-methyl-2,5-diazabicyclo[2.2.1]heptan-2-yl)phenyl)pyrimidin-2-amine], the GI50 is < 1000 nM. Still for that read-out and setting: as for `Cc1cc(Nc2nccc(-c3cnc4c(c3)OC(C)(C)C(=O)N4)n2)ccc1N1CC2CCC(C1)N2C` [compound 165, 4-(2,2-dimethyl-3-oxo-3,4-dihydro-2H-pyrido[3,2-b][1,4]oxazin-7-yl)-N-(3-methyl-4-(8-methyl-3,8-diazabicyclo[3.2.1]octan-3-yl)phenyl)pyrimidin-2-amine], the figure is < 1000 nM. The same measure, in the same setting: with `Cc1cc(Nc2nccc(-c3ccc(C(C)(C)C)cc3)n2)ccc1N1C[C@@H]2C[C@H]1CN2C` [compound 46, 4-(4-(1,1-dimethylethyl)phenyl)-N-(3-methyl-4-((1S,4S)-5-methyl-2,5-diazabicyclo[2.2.1]heptan-2-yl)phenyl)pyrimidin-2-amine] the figure was < 1000 nM. On the same count and under the same terms, as for `Cc1cc(Nc2nccc(-c3ccc(N4CCOCC4)nc3)n2)ccc1N1C[C@H]2C[C@@H]1CN2C` [compound 72, 4-(6-(morpholin-4-yl)pyridin-3-yl)-N-(3-methyl-4-((1R,4R)-5-methyl-2,5-diazabicyclo[2.2.1]heptan-2-yl)phenyl)pyrimidin-2-amine], the figure is < 1000 nM. Regarding `Cc1cc(Nc2nccc(-c3ccc(N4C[C@@H]5C[C@H]4CN5c4ccc(F)cc4)nc3)n2)ccc1N1CCN(C)CC1` [compound 13, 4-(6-((1S,4S)-5-(4-fluorophenyl)-2,5-diazabicyclo-[2.2.1]-heptan-2-yl)pyridin-3-yl)-N-(3-methyl-4-(4-methyl-piperazin-1-yl)phenyl)-pyrimidin-2-amine], the GI50 was < 1000 nM.

As to `Cc1cc(Nc2nccc(-c3ccc(N)nc3)n2)ccc1N1C[C@@H]2C[C@H]1CN2S(C)(=O)=O` [compound 150, 4-(6-aminopyridin-3-yl)-N-(3-methyl-4-((1S,4S)-5-methylsulfonyl-2,5-diazabicyclo[2.2.1]heptan-2-yl)phenyl)pyrimidin-2-amine], the GI50 was < 1000 nM.

Staying with this assay, now noted: inhibition of JAK2 activity, proliferation of Ba/F3 V617F cells, read-out: IC50 (the source's name).
Turning to `CC(=O)Nc1ccc(-c2ccnc(Nc3ccc(N4C[C@@H]5C[C@H]4CN5C)nc3)n2)cn1` [compound 55, 4-(6-(methylcarbonylamino)pyridin-3-yl)-N-(6-((1S,4S)-5-methyl-2,5-diazabicyclo[2.2.1]heptan-2-yl)pyridin-3-yl)pyrimidin-2-amine], the GI50 is 1000 to 10000 nM.

Values taken from US9624229B2, “Pyrimidine-2-amine compounds and their use as inhibitors of JAK kinases” (Rigel Pharmaceuticals, Inc., priority 2008, dated 2017).
